Reference: patent US10597388B2, “Pyridazinone herbicides” (FMC CORPORATION, priority 2014, dated 2020)

Columns and labels:
Type in all cases: in vivo
[1] = test system: johnsongrass (Sorghum halepense); assay: Test C greenhouse herbicide test, pre- and postemergence
Text: (§1) Seeds of plant species selected from blackgrass (Alopecurus myosuroides), ryegrass, Italian (Italian ryegrass, Lolium multiflorum), wheat (winter wheat, Triticum aestivum), galium (catchweed bedstraw, Galium aparine), corn (Zea mays), large crabgrass, large (large crabgrass, Digitaria sanguinalis), foxtail, giant (giant foxtail, Setaria faberii), johnsongrass (Sorghum halepense), lambsquarters (Chenopodium album), morningglory (Ipomoea coccinea), nutsedge, yellow (yellow nutsedge, Cyperus esculentus), pigweed (Amaranthus retroflexus), ragweed (common ragweed, Ambrosia elatior), soybean (Glycine max), barnyardgrass (Echinochloa crus-galli), oilseed rape (Brassica napus), waterhemp (common waterhemp, Amaranthus rudis), and velvetleaf (Abutilon theophrasti) were planted into a blend of loam soil and sand and treated preemergence with test chemicals formulated in a non-phytotoxic solvent mixture which included a surfactant.
(§2) At the same time, plants selected from these crop and weed species and also chickweed (common chickweed, Stellaria media), kochia (Kochia scoparia), and oat, wild (wild oat, Avena fatua), were planted in pots containing Redi-Earth® planting medium (Scotts Company, 14111 Scottslawn Road, Marysville, Ohio 43041) comprising spaghnum peat moss, vermiculite, wetting agent and starter nutrients and treated with postemergence applications of test chemicals formulated in the same manner. Plants ranged in height from 2 to 18 cm (1- to 4-leaf stage) for postemergence treatments. Treated plants and controls were maintained in a greenhouse for 13 to 15 d, after which time all species were compared to controls and visually evaluated. Plant response ratings, summarized in Table C, are based on a scale of 0 to 100 where 0 is no effect and 100 is complete control. A dash (-) response means no test result.

[2] = test system: waterhemp (common waterhemp, Amaranthus rudis); assay: as above
Text: as §1, §2

[3] = test system: pigweed (Amaranthus retroflexus); assay: Test A greenhouse herbicide test, pre- and postemergence
Procedure, shortened: (§3)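 Seeds sown in loam–sand blend got a preemergence directed soil spray of compound in non-phytotoxic solvent with surfactant. Postemergence treatment was given at 2–10 cm, one- to two-leaf stage. After ~10 d in greenhouse, injury was rated visually vs untreated controls, 0 (no effect) to 100 (complete control).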

[4] = test system: wheat (Triticum aestivum); assay: as above; conditions: Postemergence
Procedure, shortened: as §3

[5] = test system: ragweed (common ragweed, Ambrosia elatior); assay: as above
Procedure, shortened: as §3

[6] = test system: kochia (Kochia scoparia); assay: as above
Procedure, shortened: as §3

[7] = test system: corn (Zea mays); assay: as above; conditions: Postemergence
Procedure, shortened: as §3

[8] = test system: ryegrass, Italian (Italian ryegrass, Lolium multiflorum); assay: as above
Procedure, shortened: as §3

[9] = test system: barnyardgrass (Echinochloa crus-galli); assay: as above
Procedure, shortened: as §3

[10] = test system: foxtail, giant (giant foxtail, Setaria faberii); assay: as above
Procedure, shortened: as §3

[11] = Postemergence, 31 g ai/ha, scale 0 to 100 (0 no effect, 100 complete control)
[12] = Postemergence, 62 g ai/ha, 0 to 100 scale (0 no effect, 100 complete control)
[13] = Postemergence, 250 g ai/ha, scale 0 to 100, 0 no effect, 100 complete control, 13 to 15 d
[14] = Preemergence, 31 g ai/ha, scale 0 to 100, 0 is no effect, 100 is complete control
[15] = Preemergence, 62 g ai/ha, scale 0 to 100, 0 is no effect, 100 is complete control
[16] = Preemergence, 125 g ai/ha, scale 0 to 100, 0 is no effect, 100 is complete control
[17] = Preemergence, 250 g ai/ha, scale 0 to 100, 0 no effect, 100 complete control
[18] = postemergence, 125 g ai/ha, scale 0 to 100, 0 no effect, 100 complete control
[19] = Postemergence, 125 g ai/ha, 0 to 100 scale where 0 is no effect and 100 is complete control
[20] = Postemergence, 500 g ai/ha, visual rating after approx. 10 d, 0 to 100 scale (0 no effect, 100 complete control)
[21] = Preemergence, 125 g ai/ha, 0 to 100 scale where 0 is no effect and 100 is complete control
[22] = Preemergence, 500 g ai/ha, 0 to 100 scale where 0 is no effect and 100 is complete control
[23] = 125 g ai/ha, 0 to 100 scale where 0 is no effect and 100 is complete control
[24] = 500 g ai/ha, visual rating after approx. 10 d, 0 to 100 scale (0 no effect, 100 complete control)
[25] = 4 g ai/ha, preemergence, visual rating, scale 0 to 100 (0 no effect, 100 complete control), 13 to 15 d
[26] = Postemergence, 8 g ai/ha, scale 0 to 100 (0 no effect, 100 complete control)
[27] = Postemergence, 16 g ai/ha, scale 0 to 100 (0 no effect, 100 complete control)
[28] = Preemergence, 16 g ai/ha, scale 0 to 100, 0 is no effect, 100 is complete control

SMILES: CCC(=O)Oc1c(C)nn(C)c(=O)c1-c1ccc(Br)c2ccccc12 [Compound 134]
- Plant response rating, Johnsongrass [1, 11]: 10
- Johnsongrass plant response rating [1, 12]: 10
- Plant response rating, Johnsongrass [1, 13]: 25
- Plant response rating, Johnsongrass [1, 14]: 0
- Plant response rating, Johnsongrass [1, 15]: 5
- Plant response rating, Johnsongrass [1, 16]: 5
- Johnsongrass plant response rating [1, 17]: 5
- Johnsongrass plant response rating [1, 18]: 5
- Plant response rating, Waterhemp [2, 11]: 98
- Waterhemp plant response rating [2, 12]: 100
- Plant response rating, Waterhemp [2, 13]: 100
- Plant response rating, Waterhemp [2, 14]: 90
- Plant response rating, Waterhemp [2, 15]: 98
- Plant response rating, Waterhemp [2, 16]: 98
- Waterhemp plant response rating [2, 17]: 100
- Waterhemp plant response rating [2, 18]: 100
- Plant response rating, Pigweed [3, 19]: 90
- Plant response rating, Pigweed [3, 20]: 100
- Pigweed plant response rating [3, 21]: 100
- Plant response rating, Pigweed [3, 22]: 100
- Plant response rating, Wheat [4, 23]: 30
- Plant response rating, Wheat [4, 24]: 30
- Plant response rating, Ragweed [5, 19]: 100
- Plant response rating, Ragweed [5, 20]: 100
- Ragweed plant response rating [5, 21]: 80
- Plant response rating, Ragweed [5, 22]: 90
- Plant response rating, Kochia [6, 19]: 100
- Plant response rating, Kochia [6, 20]: 100
- Kochia plant response rating [6, 21]: 70
- Plant response rating, Kochia [6, 22]: 100
- Plant response rating, Corn [7, 23]: 20
- Plant response rating, Corn [7, 24]: 50
- Plant response rating, Ryegrass, Italian [8, 19]: 100
- Plant response rating, Ryegrass, Italian [8, 20]: 100
- Ryegrass, Italian plant response rating [8, 21]: 100
- Plant response rating, Ryegrass, Italian [8, 22]: 100
- Plant response rating, Barnyardgrass [9, 19]: 20
- Plant response rating, Barnyardgrass [9, 20]: 60
- Barnyardgrass plant response rating [9, 21]: 20
- Plant response rating, Barnyardgrass [9, 22]: 90
- Plant response rating, Foxtail, Giant [10, 19]: 20
- Plant response rating, Foxtail, Giant [10, 20]: 80
- Foxtail, Giant plant response rating [10, 21]: 50
- Plant response rating, Foxtail, Giant [10, 22]: 90

SMILES: COC(=O)Oc1c(OC)nn(C)c(=O)c1-c1c(C)ccc2ccccc12 [Compound 136]
- Plant response rating, Johnsongrass [1, 11]: 5
- Johnsongrass plant response rating [1, 12]: 5
- Plant response rating, Johnsongrass [1, 13]: 5
- Plant response rating, Johnsongrass [1, 14]: 5
- Plant response rating, Johnsongrass [1, 15]: 5
- Plant response rating, Johnsongrass [1, 16]: 20
- Johnsongrass plant response rating [1, 17]: 10
- Johnsongrass plant response rating [1, 18]: 5
- Plant response rating, Waterhemp [2, 11]: 80
- Waterhemp plant response rating [2, 12]: 80
- Plant response rating, Waterhemp [2, 13]: 100
- Plant response rating, Waterhemp [2, 14]: 98
- Plant response rating, Waterhemp [2, 15]: 100
- Plant response rating, Waterhemp [2, 16]: 98
- Waterhemp plant response rating [2, 17]: 100
- Waterhemp plant response rating [2, 18]: 95
- Plant response rating, Pigweed [3, 19]: 90
- Plant response rating, Pigweed [3, 20]: 100
- Pigweed plant response rating [3, 21]: 100
- Plant response rating, Pigweed [3, 22]: 100
- Plant response rating, Wheat [4, 23]: 0
- Plant response rating, Wheat [4, 24]: 30
- Plant response rating, Ragweed [5, 19]: 100
- Plant response rating, Ragweed [5, 20]: 100
- Ragweed plant response rating [5, 21]: 80
- Plant response rating, Ragweed [5, 22]: 90
- Plant response rating, Kochia [6, 19]: 100
- Plant response rating, Kochia [6, 20]: 100
- Kochia plant response rating [6, 21]: 60
- Plant response rating, Kochia [6, 22]: 90
- Plant response rating, Corn [7, 23]: 30
- Plant response rating, Corn [7, 24]: 30
- Plant response rating, Ryegrass, Italian [8, 19]: 90
- Plant response rating, Ryegrass, Italian [8, 20]: 100
- Ryegrass, Italian plant response rating [8, 21]: 90
- Plant response rating, Ryegrass, Italian [8, 22]: 100
- Plant response rating, Barnyardgrass [9, 19]: 20
- Plant response rating, Barnyardgrass [9, 20]: 100
- Barnyardgrass plant response rating [9, 21]: 10
- Plant response rating, Barnyardgrass [9, 22]: 80
- Plant response rating, Foxtail, Giant [10, 19]: 90
- Plant response rating, Foxtail, Giant [10, 20]: 100
- Foxtail, Giant plant response rating [10, 21]: 80
- Plant response rating, Foxtail, Giant [10, 22]: 100

SMILES: Cc1nn(C)c(=O)c(-c2ccc(Cl)c3ccccc23)c1O [Compound 139]
- Plant response rating, Johnsongrass [1, 11]: 5
- Johnsongrass plant response rating [1, 12]: 5
- Plant response rating, Johnsongrass [1, 13]: 25
- Plant response rating, Johnsongrass [1, 14]: 5
- Plant response rating, Johnsongrass [1, 15]: 35
- Plant response rating, Johnsongrass [1, 16]: 35
- Johnsongrass plant response rating [1, 17]: 25
- Johnsongrass plant response rating [1, 18]: 15
- Plant response rating, Waterhemp [2, 11]: 98
- Waterhemp plant response rating [2, 12]: 100
- Plant response rating, Waterhemp [2, 13]: 100
- Plant response rating, Waterhemp [2, 14]: 100
- Plant response rating, Waterhemp [2, 15]: 100
- Plant response rating, Waterhemp [2, 16]: 100
- Waterhemp plant response rating [2, 17]: 100
- Waterhemp plant response rating [2, 18]: 100
- Plant response rating, Pigweed [3, 19]: 60
- Plant response rating, Pigweed [3, 20]: 100
- Pigweed plant response rating [3, 21]: 100
- Plant response rating, Pigweed [3, 22]: 100
- Plant response rating, Wheat [4, 23]: 30
- Plant response rating, Wheat [4, 24]: 30
- Plant response rating, Ragweed [5, 19]: 100
- Plant response rating, Ragweed [5, 20]: 100
- Plant response rating, Ragweed [5, 22]: 100
- Plant response rating, Kochia [6, 19]: 100
- Plant response rating, Kochia [6, 20]: 100
- Kochia plant response rating [6, 21]: 100
- Plant response rating, Kochia [6, 22]: 100
- Plant response rating, Corn [7, 23]: 30
- Plant response rating, Corn [7, 24]: 40
- Plant response rating, Ryegrass, Italian [8, 19]: 100
- Plant response rating, Ryegrass, Italian [8, 20]: 100
- Plant response rating, Ryegrass, Italian [8, 22]: 100
- Plant response rating, Barnyardgrass [9, 19]: 20
- Plant response rating, Barnyardgrass [9, 20]: 100
- Barnyardgrass plant response rating [9, 21]: 20
- Plant response rating, Barnyardgrass [9, 22]: 100
- Plant response rating, Foxtail, Giant [10, 19]: 70
- Plant response rating, Foxtail, Giant [10, 20]: 100
- Foxtail, Giant plant response rating [10, 21]: 60
- Plant response rating, Foxtail, Giant [10, 22]: 100

SMILES: Cc1ccc2ccc(Cl)cc2c1-c1c(O)c(C)nn(C)c1=O [Compound 144]
- Plant response rating, Johnsongrass [1, 25]: 0
- Johnsongrass plant response rating [1, 26]: 20
- Plant response rating, Johnsongrass [1, 26]: 10
- Plant response rating, Johnsongrass [1, 27]: 10
- Plant response rating, Johnsongrass [1, 11]: 10
- Plant response rating, Johnsongrass [1, 28]: 25
- Plant response rating, Johnsongrass [1, 14]: 60
- Plant response rating, Waterhemp [2, 25]: 80
- Plant response rating, Waterhemp [2, 26]: 90
- Waterhemp plant response rating [2, 26]: 90
- Plant response rating, Waterhemp [2, 27]: 90
- Plant response rating, Waterhemp [2, 11]: 95
- Plant response rating, Waterhemp [2, 28]: 100
- Plant response rating, Waterhemp [2, 14]: 100
- Plant response rating, Pigweed [3, 19]: 100
- Plant response rating, Pigweed [3, 20]: 100
- Pigweed plant response rating [3, 21]: 100
- Plant response rating, Pigweed [3, 22]: 100
- Plant response rating, Wheat [4, 23]: 90
- Plant response rating, Wheat [4, 24]: 100
- Plant response rating, Ragweed [5, 19]: 100
- Plant response rating, Ragweed [5, 20]: 100
- Plant response rating, Ragweed [5, 22]: 100
- Plant response rating, Kochia [6, 19]: 100
- Plant response rating, Kochia [6, 20]: 100
- Kochia plant response rating [6, 21]: 100
- Plant response rating, Kochia [6, 22]: 100
- Plant response rating, Corn [7, 23]: 60
- Plant response rating, Corn [7, 24]: 90
- Plant response rating, Ryegrass, Italian [8, 19]: 100
- Plant response rating, Ryegrass, Italian [8, 20]: 100
- Plant response rating, Ryegrass, Italian [8, 22]: 100
- Plant response rating, Barnyardgrass [9, 19]: 100
- Plant response rating, Barnyardgrass [9, 20]: 100
- Barnyardgrass plant response rating [9, 21]: 90
- Plant response rating, Barnyardgrass [9, 22]: 100
- Plant response rating, Foxtail, Giant [10, 19]: 100
- Plant response rating, Foxtail, Giant [10, 20]: 100
- Foxtail, Giant plant response rating [10, 21]: 100
- Plant response rating, Foxtail, Giant [10, 22]: 100
